Source: patent US12144799B2, “Method for long-term storage of chlorophyll-containing extract” (ABL CO., LTD, priority 2018, dated 2024)

How the values were obtained:
[1] = Fractional extraction of chlorophyll a from ethanol extract into oil layer (HPLC); format: physicochemical; conditions: oil added 1:1 (50 ml) to ethanol extract of wheatgrass powder, stirred, layers separated for 2 minutes
Experimental: (§1) In order to analyze the content of extracted chlorophyll, high-performance liquid chromatography (HPLC) was used. Purification was performed using the Agilent 1100 Series HPLC system from AGILENT, and the column used was Shimadzu Shim-pack C18 analytical column (250 mm×4.6 mm, 5 μm, 100). The peak was detected as ultraviolet ray absorption using a diode array detector. The injection volume was […], and the flow rate was […].
(§2) The reference material for chlorophyll a was purchased from Aldrich Chemical Co. (Milwaukee, Wis.), and was used without a further purification process.

[2] = Storage stability test of chlorophyll a in stabilization candidate oils (HPLC content); conditions: chlorophyll a in the oil layer, room temperature storage, dark place
Experimental: as §1, §2
The storage stability of chlorophyll a stabilization candidate materials used in the above process for chlorophyll-a was tested. Samples were collected for each storage period at various temperatures, and the content of chlorophyll a was analyzed using the HPLC system described above.
Temperatures for the test were respectively freezing temperature (−20° C.), refrigerating temperature (4° C.), room temperature (25° C.), high temperature (50° C.), and being left at room temperature.
In this process, ethanol was removed. Thereafter, the obtained was stored for a predetermined period in a dark place for each temperature to collect samples for each storage period, and then the content of chlorophyll a was analyzed using the HPLC system described above.

For CC(C)=CCC/C(C)=C/CC/C(C)=C/CC/C=C(\C)CC/C=C(\C)CCC=C(C)C [squalene], the “chlorophyll a moved to / dissolved in the oil phase” value [1] was “more than 80%” and the “half-life of chlorophyll a” value [2] was 7 months.
